# In US6498163B1, “Pyrido[2,3-D]pyrimidines and 4-aminopyrimidines as inhibitors of cellular proliferation” (Warner-Lambert Company, priority 1997, dated 2002):
# Structures can show the parent of a compound that is named as a salt.
row,melting point [°C],Structure (SMILES)
1,243 to 244,"O=c1ccc2cnc(Nc3ccc(N4CCCCC4)cc3)nc2n1C1CC2CCC1C2 (stereo not shown) [Example 181, 8-Bicyclo[2.2.1]hept-2-yl-2-(4-piperidin-1-yl-phenylamino)-8H-pyrido[2,3-d]pyrimidin-7-one]"
2,119 to 120,"CCn1c(=O)ccc2cnc(NC(C)C)nc21 (as salt: sulfate) [Example 47, 8-Ethyl-2-isopropylamino-8H-pyrido[2,3-d]pyrimidin-7-one]"
3,148 to 149,"CC(C)Nc1ncc2ccc(=O)n(C)c2n1 [Example 67, 2-Isopropylamino-8-methyl-8H-pyrido[2,3-d]pyrimidin-7-one]"
4,194 to 195,"O=c1ccc2cnc(Nc3ccc(N4CCCC(CO)C4)cc3)nc2n1C1CCCCC1 (stereo not shown) [Example 185, 8-Cyclohexyl-2-[4-(3-hydroxymethyl-piperidin-1-yl)-phenylamino]-8H-pyrido[2,3-d]pyrimidin-7-one]"
5,201 to 202,"O=c1ccc2cnc(Nc3ccc(N4CCCCC4)cc3)nc2n1C1CCCCCC1 [Example 163, 8-Cycloheptyl-2-(4-piperidin-1-yl-phenylamino)-8H-pyrido[2,3-d]pyrimidin-7-one]"
6,169 to 170,"CN(C)CCCN1CCN(c2ccc(Nc3ncc4ccc(=O)n(C5CCCCC5)c4n3)cc2)CC1 [Example 144, 8-Cyclohexyl-2-{4-[4-(3-dimethylamino-propyl)-piperazin-1-yl]-phenylamino}-8H-pyrido[2,3-d]pyrimidin-7-one]"
7,156 to 157,"O=c1ccc2cnc(NCCN3CCCCC3)nc2n1C1CCCCC1 [Example 165, 8-Cyclohexyl-2-(2-piperidin-1-yl-ethylamino)-8H-pyrido[2,3-d]pyrimidin-7-one]"
8,209,"O=c1ccc2cnc(Nc3ccc(N4CCCCC4)cc3)nc2n1C1CC2CCC1C2 (stereo not shown) [Example 229, 8-Bicyclo[2.2.1]hept-2-yl-2-(4-piperidin-1-yl-phenylamino)-8H-pyrido[2,3-d]pyrimidin-7-one]"
9,300 to 302,"O=c1ccc2cnc(Nc3ccccc3)nc2n1-c1ccccc1 [Example 101, 2-Phenylamino-8-phenyl-8H-pyrido[2,3-]pyrimidin-7-one]"
10,205 to 206,"O=c1ccc2cnc(Nc3ccc(SC(F)(F)F)cc3)nc2n1C1CC2CCC1C2 (stereo not shown) [Example 221, 8-Bicyclo[2.2.1]hept-2-yl-2-(4-trifluoromethylsulfanyl-phenylamino)-8H-pyrido[2,3-d]pyrimidin-7-one]"
11,183 to 184,"CCCCn1c(=O)ccc2cnc(Nc3ccccc3)nc21 [Example 40, 8-Butyl-2-phenylamino-8H-pyrido[2,3-d]pyrimidin-7-one]"
12,183 to 185,"CN1CCN(c2ccc(Nc3ncc4ccc(=O)n(CCOCc5ccccc5)c4n3)cc2)CC1 [Example 140, 8-(2-Benzyloxy-ethyl)-2-[4-(4-methyl-piperazin-1-yl)-phenylamino]-8H-pyrido[2,3-d]pyrimidin-7-one]"
13,199 to 200,"CCn1c(=O)c(C)cc2cnc(Nc3ccc(N4CCC(CCCN5CCOCC5)CC4)cc3)nc21 [Example 264, 8-Ethyl-6-methyl-2-{4-[4-(3-morpholin-4-yl-propyl)-piperidin-1-yl]-phenylamino}-8H-pyrido[2,3-d]pyrimidin-7-one]"
14,183 to 184,"O=c1ccc2cnc(NCc3ccccc3)nc2n1C1CCCCC1 [Example 222, 2-Benzylamino-8-cyclohexyl-8H-pyrido[2,3-d]pyrimidin-7-one]"
15,155 to 157,"CCC(CC)n1c(=O)ccc2cnc(Nc3ccc(N4CCN(C)CC4)cc3)nc21 [Example 77, 8-(1-Ethylpropyl)-2-[4-(4-methylpiperazin-1-yl)-phenylamino]-8H-pyrido[2,3-d]pyrimidin-7-one]"
16,128,"COc1ccc(CNc2ncc3ccc(=O)n(C(C)C)c3n2)cc1OC [Example 256, 2-(3,4-Dimethoxy-benzylamino)-8-isopropyl-8H-pyrido[2,3-d]pyrimidin-7-one]"
